# From patent publication US5538993A, “Certain tetrahydrocannabinol-7-oic acid derivatives” (priority 1991, dated 1996)
# Key:
# [1] = previously shown; cited from earlier work
# peritoneal leukocytes = experiment: Leukocyte adhesion assay (peritoneal cells after oral dosing); assay type: in vivo, female CD-1 mice; conditions: cells collected 90 min after dosing; for number of adhering cells: ± S.D
# Procedure: Leukocytes are thought to be major contributors to the inflammatory response and their ability in this regard is reflected by their adhesiveness to a variety of substrates [Audette, C. A., et al., ibid.] Sci., 47, 753 (1990)].
# The details of the leukocytes adhesion assay have been previously reported [Audette et al., ibid.]. In brief, peritoneal cells from female CD-1 mice (20-25 g) were collected at 90 min following oral administration of the drug or vehicle (50 μl peanut oil). Cells from each treatment group (N=3) were pooled and equal numbers aliquoted into six culture dish wells (1.9 cm^2 area). After incubation for 18-20 hours, non-adhering cells were removed and the remaining cell monolayer quantitated by DNA measurement.
# [2] = tested on: N-methyl-D-aspartate (NMDA) induced lethality; experiment: Protection against NMDA induced lethality; assay type: in vivo, Balb/c male mice; conditions: drug 10 mg/kg, 90 min before NMDA
# Procedure: (§1) The present compounds are active in several tests generally used to indicate neuroprotection.
# (§2) Balb/c male mice were administered with the drug 90 min before treatment with NMDA (125 mq/kg) or 120 min before picrotoxin (8 mg/kg) in emulsion, s.c. The survival rate shown in Table VI indicates number of survivors out of total number of animals used.
# PAF-Induced Paw Edema = experiment: Inhibition of PAF-induced paw edema; assay type: in vivo, CD-1 female mice; conditions: for Inhibition of PAF-Induced Paw Edema: vs vehicle treated controls, 15 min after PAF
# Procedure: A second model, in which edema is induced by platelet activating factor (PAF), was used to evaluate activity.
# (§3) The conditions were based on those reported previously [Calhoun et al., ibid.]. […] PAF (1.0 μq) or arachidonic acid (1.0 mg) dissolved in 50 μl of 5% ethanol in saline, were injected s.c. into the plantar surface of the right hind paw of CD-1 female mice (20-25 g) obtained from Charles River Labs. The mice were under ether anesthesia during this procedure. The volume of the right foot was measured to the level of the lateral malleotis by water displacement before treatment and 15 min after PAF injection or 30 min after archidonate injection. The change in paw volume was calculated for each mouse and the significance for each group was determined by a paired t test analysis.
# [3] = tested on: Arachidonic Acid-Induced Paw Edema; experiment: Inhibition of arachidonic acid-induced paw edema; assay type: in vivo, CD-1 female mice
# Description: The induction of paw edema in rodents by injection of arachidonic acid has been used as an experimental model for inflammation [Calhoun, W., et al., Agents and Actions, 21, 306 (1987)]. Prior administration of non-steroidalanti-inflammatory drugs (NSAIDs) in many cases leads to a dose related inhibition of the edematous response which may be considered a predictor of clinical efficacy.
# as §3
# [4] = tested on: Picrotoxin induced lethality; experiment: Protection against picrotoxin induced lethality; assay type: in vivo, Balb/c male mice; conditions: drug 10 mg/kg, 120 min before picrotoxin (8 mg/kg)
# Procedure: as §1, §2
# forebrain ischemia = experiment: Protection against forebrain ischemia (unilateral occlusion); assay type: in vivo; conditions: mongolian gerbils, result in words
# Description: as §1
# mouse hot plate test = experiment: Hot plate test for antinociception (55° C.); assay type: in vivo; conditions: 90 min before test
# Procedure: In the hot plate test for analgesia an aluminum surface was maintained at 55±1° C. by circulating water through passages in the metal. A clear plastic cylinder 18 cm in diameter and 26 cm high was placed on the surface to prevent escape. The end point was taken when the mouse either performed a hind paw lick or jumped off the surface; in no case were the animals kept for more than 30 secs on the plate. Mice were never used more than one time; control values were always measured at 11 a.m. and test values at 2 p.m. The drugs were administered orally 90 min before the hot plate test. The percent change in response time (latency) was calculated by comparing the mean of the control values with the mean of the test values and statistical signficance determined by a paired tetest analysis using software (Statview, 512) from Brainpower, Inc., Calabasas, Calif.
# cataleptic response = experiment: Cataleptic effects, ring test; assay type: in vivo, mouse; conditions: 5 min test period, ± SD
# Procedure: The lack of CNS activity for the compounds described herein may be seen from the data shown in Table V. This was measured by the so-called "ring test" [Pertwee, R. G., et al., J. Pharmacol., 46, 753 (1972)] in which the cataleptic effects of cannabinoids can be quantitated. The compounds produced little or no response when compared with the parent drug.
# The cataleptic response was measured using the ring test. Mice were placed on a horizontal wire ring 5.5 cm in diameter, which was attached to a 16 cm vertical rod. The hind paws and fore paws were placed at opposite sides of the ring. It is important that the ambient temperature is maintained at 30° C. and that the environment be free of auditory stimuli and bright lights. The criteria for immobility are detailed by Pertwee. The response is calculated as the fraction of time the mouse is immobile over a 5 min. test period. Measurements were always done between 2 and 4 p.m. and the animals were used only once.
# intraocular pressure = experiment: Reduction of intraocular pressure (anti-glaucoma); assay type: in vivo, rabbits; conditions: 50 μl drop of a 1% emulsion into rabbit eye
# Procedure: Reduction of intraocular pressure in rabbits was determined by the addition of a 50 μl drop of a 1% emulsion of the cannabinoid into the rabbit eye. This test is a measure of anti-glaucoma activity.
compound,measurement,setting,value
"CCCCCc1cc(O)c2c(c1)OC(C)(C)[C@@H]1CCC(C(=O)O)=C[C@@H]21 [Compound 2, (3R,4R)-delta-1-tetrahydrocannabinol-7-oic acid]",analgetic activity,[1],analgetic
same,antiinflammatory activity,[1],antiinflammatory
same,psychotropic effects,[1],no psychotropic effects
CCCCCCC(C)(C)c1cc(O)c2c(c1)OC(C)(C)[C@H]1CC=C(C(=O)O)C[C@H]21 [HU-235],"adhering cells, percent of control",peritoneal leukocytes; 0.01 mg/kg oral,106% of control
same,number of adhering cells,peritoneal leukocytes; 0.01 mg/kg oral,1.34 ± 0.14 number of adhering cells × 10^-6
same,"adhering cells, percent of control",peritoneal leukocytes; 0.05 mg/kg oral,102% of control
same,number of adhering cells,peritoneal leukocytes; 0.05 mg/kg oral,1.29 ± 0.05 number of adhering cells × 10^-6
same,"adhering cells, percent of control",peritoneal leukocytes; 0.10 mg/kg oral,110% of control
same,number of adhering cells,peritoneal leukocytes; 0.10 mg/kg oral,1.38 ± 0.17 number of adhering cells × 10^-6
same,"adhering cells, percent of control",peritoneal leukocytes; 0.50 mg/kg oral,116% of control
same,number of adhering cells,peritoneal leukocytes; 0.50 mg/kg oral,1.46 ± 0.05 number of adhering cells × 10^-6
same,"adhering cells, percent of control",peritoneal leukocytes; 1.00 mg/kg oral,56% of control
same,number of adhering cells,peritoneal leukocytes; 1.00 mg/kg oral,0.70 ± 0.12 number of adhering cells × 10^-6
same,Survival rate (survivors out of total),[2],7/10
same,Inhibition of PAF-Induced Paw Edema,PAF-Induced Paw Edema; 0.05 mg/kg,44.4%
same,Inhibition of PAF-Induced Paw Edema,PAF-Induced Paw Edema; 0.10 mg/kg,38.7%
same,Inhibition of PAF-Induced Paw Edema,PAF-Induced Paw Edema; 0.25 mg/kg,31.9%
same,Inhibition of PAF-Induced Paw Edema,PAF-Induced Paw Edema; 0.5 mg/kg,60.1%
same,activity in PAF-induced edema,PAF-Induced Paw Edema; result in words,active
same,Inhibition of Arachidonic Acid-Induced Paw Edema,"[3]; 0.050 mg/kg, vs vehicle treated controls, 30 min after arachidonate",42.1%
same,reduction of arachidonic acid paw edema,[3]; result in words,effective in reducing paw edema
same,Survival rate (survivors out of total),[4],8/12
same,protection against forebrain ischemia,forebrain ischemia,shown to protect against forebrain ischemia
same,percent change in latency,mouse hot plate test; 0.02 mg/kg oral,10.3%
same,percent change in latency,mouse hot plate test; 0.05 mg/kg oral,61.7%
same,percent change in latency,mouse hot plate test; 0.10 mg/kg oral,49.5%
same,percent change in latency,mouse hot plate test; 0.25 mg/kg oral,61.5%
same,percent change in latency,mouse hot plate test; 0.50 mg/kg oral,61.5%
same,percent change in latency,mouse hot plate test; 1.0 mg/kg oral,51.7%
same,percent change in latency,mouse hot plate test; 2.0 mg/kg oral,14.7%
same,cataleptic response (fraction of time immobile),cataleptic response; 0.25 mg/kg,12.3 ± 10.3
same,cataleptic response (fraction of time immobile),cataleptic response; 0.5 mg/kg,13.8 ± 7.9
same,cataleptic response (fraction of time immobile),cataleptic response; 1.0 mg/kg,10.4 ± 10.6
same,cataleptic response (fraction of time immobile),cataleptic response; 4.0 mg/kg,8.7 ± 5.6
same,reduction of intraocular pressure,intraocular pressure,Significant reduction
"CCCCCc1cc(O)c2c(c1)OC(C)(C)[C@@H]1CC=C(C(=O)O)C[C@@H]21 [Δ^6 -THC-7-oic acid, reference compound]",Inhibition of PAF-Induced Paw Edema,PAF-Induced Paw Edema; 0.5 mg/kg,N.S.
same,Inhibition of PAF-Induced Paw Edema,PAF-Induced Paw Edema; 1.0 mg/kg,N.S.
same,Inhibition of PAF-Induced Paw Edema,PAF-Induced Paw Edema; 40.0 mg/kg,50.2%
"CCCCCCC(C)(C)c1cc(O)c2c(c1)OC(C)(C)[C@H]1CC=C(CO)C[C@H]21 [HU-211, 7-hydroxy-delta-6-tetrahydrocannabinoldimethylheptyl, reference compound]","adhering cells, percent of control",peritoneal leukocytes; 0.05 mg/kg oral,124% of control
same,number of adhering cells,peritoneal leukocytes; 0.05 mg/kg oral,1.09 ± 0.08 number of adhering cells × 10^-6
same,"adhering cells, percent of control",peritoneal leukocytes; 0.10 mg/kg oral,50% of control
same,number of adhering cells,peritoneal leukocytes; 0.10 mg/kg oral,0.44 ± 0.03 number of adhering cells × 10^-6
same,"adhering cells, percent of control",peritoneal leukocytes; 0.50 mg/kg oral,73% of control
same,number of adhering cells,peritoneal leukocytes; 0.50 mg/kg oral,0.64 ± 0.06 number of adhering cells × 10^-6
same,"adhering cells, percent of control",peritoneal leukocytes; 1.00 mg/kg oral,67% of control
same,number of adhering cells,peritoneal leukocytes; 1.00 mg/kg oral,0.59 ± 0.06 number of adhering cells × 10^-6
same,Survival rate (survivors out of total),[2],11/16
same,Inhibition of PAF-Induced Paw Edema,PAF-Induced Paw Edema; 0.5 mg/kg,37.5%
same,Inhibition of PAF-Induced Paw Edema,PAF-Induced Paw Edema; 1.0 mg/kg,21.9%
same,Survival rate (survivors out of total),[4],6/10
same,analgetic activity,[1],analgetic
same,anti-NMDA activity,[1],anti-NMDA
same,antiemetic activity,[1],entiemetic
same,protection against forebrain ischemia,forebrain ischemia,shown to protect against forebrain ischemia
same,percent change in latency,mouse hot plate test; 0.25 mg/kg oral,30.0%
same,percent change in latency,mouse hot plate test; 0.50 mg/kg oral,72.5%
same,percent change in latency,mouse hot plate test; 1.0 mg/kg oral,-10.2%
"CCCCCc1cc(O)c2c(c1)OC(C)(C)[C@@H]1CCC(C)=C[C@@H]21 [Δ^1 -THC, (3R,4R)-delta-1-tetrahydrocannabinol, reference compound]",cataleptic response (fraction of time immobile),cataleptic response; 40 mg/kg,48.9 ± 16
THC-7-oic Acid [reference compound],"adhering cells, percent of control",peritoneal leukocytes; 20 mg/kg oral,90.6% of control
same,number of adhering cells,peritoneal leukocytes; 20 mg/kg oral,0.67 ± 0.02 number of adhering cells × 10^-6
same,"adhering cells, percent of control",peritoneal leukocytes; 40 mg/kg oral,67.9% of control
same,number of adhering cells,peritoneal leukocytes; 40 mg/kg oral,0.55 ± 0.22 number of adhering cells × 10^-6
